Results on five compounds are retold here after the supplement of paper PMC10307832.

The first test has as its system NCI-H647. The test is described as follows: relative viability (nuclei count vs DMSO), 5 days (fraction); higher = more cells survive. To be noted: first compound 0.08 µM. In short, it runs like this: (§1)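 Cells from lung cancer lines were seeded into 1536-well plates and, one day later, dosed by pin tool. Treatments were either a single drug or a fixed dose of an anchor drug with five library-drug doses (not always all listed) in √10 steps. After 5 days, nuclei were stained in a one-step fixation (final 0.05% Triton X-100, 1% formaldehyde, 1 ug/ml Hoechst) and counted on 4× images, and relative viability is the treated-to-vehicle nuclei ratio, as the median of duplicate plates.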
Compound `CCCCCCCCCCCC1=C(O)C(=O)C=C(O)C1=O` [Embelin] + O=C(CCCCCCC(=O)Nc1ccccc1)NO [Vorinostat] (partner 1 µM) registered a relative viability of 0.58.

In turn, `CCCCCCCCCCCC1=C(O)C(=O)C=C(O)C1=O` [Embelin] + O=C(c1cc(Cc2n[nH]c(=O)c3ccccc23)ccc1F)N1CCN(C(=O)C2CC2)CC1 [Olaparib] (partner 8 µM) displayed a relative viability of 0.575.

For the compound `CCCCCCCCCCCC1=C(O)C(=O)C=C(O)C1=O` [Embelin] + Cc1cc(Nc2cc(N3CCN(C)CC3)nc(Sc3ccc(NC(=O)C4CC4)cc3)n2)n[nH]1 [Tozasertib] (partner 0.1 µM), the relative viability was found to be 0.361.

Regarding `CCCCCCCCCCCC1=C(O)C(=O)C=C(O)C1=O` [Embelin] + Nc1ncn([C@H]2C[C@H](O)[C@@H](CO)O2)c(=O)n1 [Decitabine] (partner 2 µM), the relative viability was 0.454.

Take `CCCCCCCCCCCC1=C(O)C(=O)C=C(O)C1=O` [Embelin] + CC(=O)c1c(C)c2cnc(Nc3ccc(N4CCNCC4)cn3)nc2n(C2CCCC2)c1=O [Palbociclib] (partner 0.5 µM): the relative viability stood at 0.405.

The same test, now with this note: first compound 0.8 µM.
As to `CCCCCCCCCCCC1=C(O)C(=O)C=C(O)C1=O` [Embelin] + O=C(CCCCCCC(=O)Nc1ccccc1)NO [Vorinostat] (partner 1 µM), the relative viability turned out to be 0.985.

`CCCCCCCCCCCC1=C(O)C(=O)C=C(O)C1=O` [Embelin] + O=C(c1cc(Cc2n[nH]c(=O)c3ccccc23)ccc1F)N1CCN(C(=O)C2CC2)CC1 [Olaparib] (partner 8 µM): the relative viability was found to be 0.67.

`CCCCCCCCCCCC1=C(O)C(=O)C=C(O)C1=O` [Embelin] + Cc1cc(Nc2cc(N3CCN(C)CC3)nc(Sc3ccc(NC(=O)C4CC4)cc3)n2)n[nH]1 [Tozasertib] (partner 0.1 µM): the relative viability worked out at 0.26.

Compound `CCCCCCCCCCCC1=C(O)C(=O)C=C(O)C1=O` [Embelin] + Nc1ncn([C@H]2C[C@H](O)[C@@H](CO)O2)c(=O)n1 [Decitabine] (partner 2 µM) registered a relative viability of 0.379.

Take `CCCCCCCCCCCC1=C(O)C(=O)C=C(O)C1=O` [Embelin] + CC(=O)c1c(C)c2cnc(Nc3ccc(N4CCNCC4)cn3)nc2n(C2CCCC2)c1=O [Palbociclib] (partner 0.5 µM): the relative viability worked out at 0.448.

The test is the same for the next values; noted with them: first compound 2.53 µM.
For `CCCCCCCCCCCC1=C(O)C(=O)C=C(O)C1=O` [Embelin] + O=C(CCCCCCC(=O)Nc1ccccc1)NO [Vorinostat] (partner 1 µM), the relative viability was 0.732.

As for `CCCCCCCCCCCC1=C(O)C(=O)C=C(O)C1=O` [Embelin] + O=C(c1cc(Cc2n[nH]c(=O)c3ccccc23)ccc1F)N1CCN(C(=O)C2CC2)CC1 [Olaparib] (partner 8 µM), the relative viability came to 0.705.

In turn, `CCCCCCCCCCCC1=C(O)C(=O)C=C(O)C1=O` [Embelin] + Cc1cc(Nc2cc(N3CCN(C)CC3)nc(Sc3ccc(NC(=O)C4CC4)cc3)n2)n[nH]1 [Tozasertib] (partner 0.1 µM) gave a relative viability of 0.288.

`CCCCCCCCCCCC1=C(O)C(=O)C=C(O)C1=O` [Embelin] + Nc1ncn([C@H]2C[C@H](O)[C@@H](CO)O2)c(=O)n1 [Decitabine] (partner 2 µM) displayed a relative viability of 0.488.

Turning to `CCCCCCCCCCCC1=C(O)C(=O)C=C(O)C1=O` [Embelin] + CC(=O)c1c(C)c2cnc(Nc3ccc(N4CCNCC4)cn3)nc2n(C2CCCC2)c1=O [Palbociclib] (partner 0.5 µM), the relative viability was 0.528.

The test is the same for the next values; noted with them: first compound 8 µM.
Consider `CCCCCCCCCCCC1=C(O)C(=O)C=C(O)C1=O` [Embelin] + O=C(CCCCCCC(=O)Nc1ccccc1)NO [Vorinostat] (partner 1 µM), for which the relative viability stood at 0.58.

Compound `CCCCCCCCCCCC1=C(O)C(=O)C=C(O)C1=O` [Embelin] + O=C(c1cc(Cc2n[nH]c(=O)c3ccccc23)ccc1F)N1CCN(C(=O)C2CC2)CC1 [Olaparib] (partner 8 µM) registered a relative viability of 0.678.

For `CCCCCCCCCCCC1=C(O)C(=O)C=C(O)C1=O` [Embelin] + Cc1cc(Nc2cc(N3CCN(C)CC3)nc(Sc3ccc(NC(=O)C4CC4)cc3)n2)n[nH]1 [Tozasertib] (partner 0.1 µM), the relative viability was determined as 0.245.

Turning to `CCCCCCCCCCCC1=C(O)C(=O)C=C(O)C1=O` [Embelin] + Nc1ncn([C@H]2C[C@H](O)[C@@H](CO)O2)c(=O)n1 [Decitabine] (partner 2 µM), the relative viability worked out at 0.277.

`CCCCCCCCCCCC1=C(O)C(=O)C=C(O)C1=O` [Embelin] + CC(=O)c1c(C)c2cnc(Nc3ccc(N4CCNCC4)cn3)nc2n(C2CCCC2)c1=O [Palbociclib] (partner 0.5 µM) returned a relative viability of 0.38.

The test system of a further test is NCI-H727. Described as above. The note with it: first compound 0.08 µM. Put shortly:
as §1
`CCCCCCCCCCCC1=C(O)C(=O)C=C(O)C1=O` [Embelin] + O=C(CCCCCCC(=O)Nc1ccccc1)NO [Vorinostat] (partner 1 µM) registered a relative viability of 1.31.

Regarding `CCCCCCCCCCCC1=C(O)C(=O)C=C(O)C1=O` [Embelin] + O=C(c1cc(Cc2n[nH]c(=O)c3ccccc23)ccc1F)N1CCN(C(=O)C2CC2)CC1 [Olaparib] (partner 8 µM), the relative viability worked out at 0.757.

The compound `CCCCCCCCCCCC1=C(O)C(=O)C=C(O)C1=O` [Embelin] + Cc1cc(Nc2cc(N3CCN(C)CC3)nc(Sc3ccc(NC(=O)C4CC4)cc3)n2)n[nH]1 [Tozasertib] (partner 0.1 µM) had a relative viability of 0.552.

Turning to `CCCCCCCCCCCC1=C(O)C(=O)C=C(O)C1=O` [Embelin] + Nc1ncn([C@H]2C[C@H](O)[C@@H](CO)O2)c(=O)n1 [Decitabine] (partner 2 µM), the relative viability was found to be 1.02.

For `CCCCCCCCCCCC1=C(O)C(=O)C=C(O)C1=O` [Embelin] + CC(=O)c1c(C)c2cnc(Nc3ccc(N4CCNCC4)cn3)nc2n(C2CCCC2)c1=O [Palbociclib] (partner 0.5 µM), the relative viability is 0.657.

Staying with this test, now noted: first compound 0.8 µM.
On to `CCCCCCCCCCCC1=C(O)C(=O)C=C(O)C1=O` [Embelin] + O=C(CCCCCCC(=O)Nc1ccccc1)NO [Vorinostat] (partner 1 µM), for which the relative viability is 1.11.

Take `CCCCCCCCCCCC1=C(O)C(=O)C=C(O)C1=O` [Embelin] + O=C(c1cc(Cc2n[nH]c(=O)c3ccccc23)ccc1F)N1CCN(C(=O)C2CC2)CC1 [Olaparib] (partner 8 µM): the relative viability stood at 0.621.

Take `CCCCCCCCCCCC1=C(O)C(=O)C=C(O)C1=O` [Embelin] + Cc1cc(Nc2cc(N3CCN(C)CC3)nc(Sc3ccc(NC(=O)C4CC4)cc3)n2)n[nH]1 [Tozasertib] (partner 0.1 µM): the relative viability is 0.565.

`CCCCCCCCCCCC1=C(O)C(=O)C=C(O)C1=O` [Embelin] + Nc1ncn([C@H]2C[C@H](O)[C@@H](CO)O2)c(=O)n1 [Decitabine] (partner 2 µM) displayed a relative viability of 0.96.

`CCCCCCCCCCCC1=C(O)C(=O)C=C(O)C1=O` [Embelin] + CC(=O)c1c(C)c2cnc(Nc3ccc(N4CCNCC4)cn3)nc2n(C2CCCC2)c1=O [Palbociclib] (partner 0.5 µM) gave a relative viability of 0.701.
